The values below come from patent US9714231B2, “Pyrrolidine GPR40 modulators” (BRISTOL-MYERS SQUIBB COMPANY, priority 2012, dated 2017).

Assay [1] deals with T1, human GPR40 (Homo sapiens, UniProt O14842).
The target in assay [2] is T1, human GPR40. The assay is described as follows: FDSS-based intracellular calcium assay (Human GRP40 in vitro assay). The assay is classed as cell-based. The arrangement: 3xFLAG; expressed in transfected cells. Particulars: cells expressing GPR40, intracellular Ca2+ response, FDSS reader; read-out: hGPR40 EC50. Put shortly: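 GPR40-expressing cells, plated overnight in serum-free phenol red-free DMEM, loaded with Fluo-3 in HBSS with 1.7 mM probenecid for 30 min at 37° C. Compounds in DMSO, diluted in assay buffer, added as 3× solutions; intracellular Ca^2+ response read on FDSS.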

Structures can show the parent of a compound that is named as a salt. Where two headings read alike, the source gives them in different places.

T1 sequence (O14842 whole entry): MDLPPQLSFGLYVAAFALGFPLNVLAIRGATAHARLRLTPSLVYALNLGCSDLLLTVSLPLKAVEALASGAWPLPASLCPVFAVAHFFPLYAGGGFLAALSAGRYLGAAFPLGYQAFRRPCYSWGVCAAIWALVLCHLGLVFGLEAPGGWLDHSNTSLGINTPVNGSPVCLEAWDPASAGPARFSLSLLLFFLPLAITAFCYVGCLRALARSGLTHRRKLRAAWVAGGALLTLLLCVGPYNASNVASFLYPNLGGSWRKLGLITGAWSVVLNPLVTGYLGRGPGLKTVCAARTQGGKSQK

A word on the EC50: it is the concentration that produces a half-maximal response. Turning to `COc1cc(N2CCC(Oc3ccc(N4C[C@H](OC)C[C@@H]4CC(=O)O)c(F)c3)C(C)C2)c(Cl)cn1` (stereo partly drawn) [Example 139, 2-((2R,4R)-1-(4-((3,4-trans)-1-(5-Chloro-2-methoxypyridin-4-yl)-3-methylpiperidin-4-yloxy)-2-fluorophenyl)-4-methoxypyrrolidin-2-yl)acetic acid], the EC50 came to 0.022 µM on human GPR40 [1] and 0.23 µM on human GPR40 [2].
Regarding `CCOc1ccc(F)c(N2CCC(Oc3ccc(N4C[C@H](C(F)(F)F)C[C@@H]4CC(=O)O)cc3)CC2)c1` [Example 85, 2-((2R,4R)-1-(4-((1-(5-Ethoxy-2-fluorophenyl)piperidin-4-yl)oxy)phenyl)-4-(trifluoromethyl)pyrrolidin-2-yl)acetic acid], the 50% effective concentration (EC50) was determined as 0.07 µM on human GPR40 [1] and 0.32 µM at human GPR40 [2].
For `COc1cc(N2CCC(Oc3ccc(N4C[C@H](C(F)(F)F)C[C@@H]4CC(=O)O)c(F)c3F)C(C)C2)c(Cl)cn1` (stereo partly drawn) [Example 140, 2-((2R,4R)-1-(4-((3,4-trans)-1-(5-Chloro-2-methoxypyridin-4-yl)-3-methylpiperidin-4-yloxy)-2,3-difluorophenyl)-4-(trifluoromethyl)pyrrolidin-2-yl)acetic acid] the same measures were 0.072 µM and 0.25 µM.
The like results for `COc1cc(N2CCC(Oc3ccc(N4C[C@H](OC)C[C@@H]4CC(=O)O)cn3)C(C)C2)c(Cl)cn1` (stereo partly drawn) [Example 132, 2-((2R,4R)-1-(6-(((3,4-trans)-1-(5-Chloro-2-methoxypyridin-4-yl)-3-methylpiperidin-4-yl)oxy)pyridin-3-yl)-4-methoxypyrrolidin-2-yl)acetic acid] were, in that order, 0.055 µM and 0.25 µM.
For `COc1cc(N2CCC(Oc3ccc(N4C[C@H](OC)[C@@H](C)[C@@H]4CC(=O)O)cc3)C(C)C2)c(Cl)cn1` (stereo partly drawn) [Example 119, 2-((2S,3S,4R)-1-(4-(((3,4-trans)-1-(5-Chloro-2-methoxypyridin-4-yl)-3-methylpiperidin-4-yl)oxy)phenyl)-4-methoxy-3-methylpyrrolidin-2-yl)acetic acid, HCl] the same measures were 0.011 µM and 0.075 µM.
Turning to `COc1cc(N2CCC(Oc3ccc(N4C[C@H](OC)[C@@H](C)[C@@H]4CC(=O)O)cn3)CC2)c(C2CCCC2(C)C)cn1` (single isomer, unassigned) [Example 151, Isomer 1, HCl], the EC50 at human GPR40 [1] was found to be 0.004 µM; on human GPR40 [2], 0.038 µM.
The like results for `CCOc1ccc(F)c(N2CCC(Oc3ccc(N4CC(C)(OC)C[C@@H]4CC(=O)O)cc3)C(C)C2)c1` (stereo partly drawn) [Example 47, 2-((2R)-1-(4-(((3,4-trans)-1-(5-Ethoxy-2-fluorophenyl)-3-methylpiperidin-4-yl)oxy)phenyl)-4-methoxy-4-methylpyrrolidin-2-yl)acetic acid, HCl] were, in that order, 0.018 µM and 0.17 µM.
The like results for `COc1ccc(C)c(N2CCC(Oc3ccc(N4C[C@H](OC)C[C@@H]4CC(=O)O)cc3)CC2)c1` [Example 57, 2-((2R,4R)-4-Methoxy-1-(4-((1-(5-methoxy-2-methylphenyl)piperidin-4-yl)oxy)phenyl)pyrrolidin-2-yl)acetic acid, TFA] were, in that order, 0.083 µM and 0.16 µM.
For `COc1ccc(CCC(C)(C)C)c(N2CCC(Oc3ccc(N4C[C@H](OC)C[C@@H]4CC(=O)O)cc3)CC2)c1` [Example 62, 2-((2R,4R)-1-(4-(1-(2-(3,3-Dimethylbutyl)-5-methoxyphenyl)piperidin-4-yloxy)phenyl)-4-methoxypyrrolidin-2-yl)acetic acid] the same measures were 0.013 µM and 0.089 µM.
`COc1ccc(F)c(N2CCC(Oc3ccc(N4C[C@H](OC)C[C@@H]4CC(=O)O)cc3)C(C)C2)c1` (single isomer, unassigned) [Example 52, Isomer 2]: the EC50 at human GPR40 [1] was found to be 0.14 µM; on human GPR40 [2] it was 0.6 µM.
The like results for `COc1ccc(F)c(N2CCC(Cc3ccc(N4C[C@H](C(F)(F)F)C[C@@H]4CC(=O)O)cc3)CC2)c1` [Example 16, 2-((2R,4R)-1-(4-((1-(2-Fluoro-5-methoxyphenyl)piperidin-4-yl)methyl)phenyl)-4-(trifluoromethyl)pyrrolidin-2-yl)acetic acid, HCl] were, in that order, 0.073 µM and 0.53 µM.
`COc1cc(N2CCC(Oc3ccc(N4C[C@H](OC)[C@@H](C)[C@@H]4CC(=O)O)cc3F)CC2)c(Cl)cn1` [Example 99, 2-((2S,3S,4R)-1-(4-((1-(5-Chloro-2-methoxypyridin-4-yl)piperidin-4-yl)oxy)-3-fluorophenyl)-4-methoxy-3-methylpyrrolidin-2-yl)acetic acid]: the EC50 at human GPR40 [1] is 0.29 µM; at human GPR40 [2], 0.289 µM.
For `COc1ccc(F)c(N2CCC(Oc3ccc(N4CC(C(F)(F)F)C(C)C4CC(=O)O)cc3)CC2)c1` (single isomer, unassigned) [Example 26, Isomer 2, 2-((2,3-trans,3,4-trans)-1-(4-((1-(2-Fluoro-5-methoxyphenyl)piperidin-4-yl)oxy)phenyl)-3-methyl-4-(trifluoromethyl)pyrrolidin-2-yl)acetic acid, HCl], the EC50 at human GPR40 [2] is 8.4 µM.
Same read-out and setting: with `COc1ccc(F)c(N2CCC(Oc3ccc(N4CC(F)(F)C[C@@H]4CC(=O)O)cc3)CC2)c1` [Example 5, (S)-2-(4,4-Difluoro-1-(4-((1-(2-fluoro-5-methoxyphenyl)piperidin-4-yl)oxy)phenyl)pyrrolidin-2-yl)acetic acid, TFA] the figure was 0.066 µM.
`COc1ccc(F)c(N2CC[C@@H](COc3ccc(N4C[C@H](C(F)(F)F)C[C@@H]4CC(=O)O)cc3)C2)c1` [Example 11, 2-((2R,4R)-1-(4-(((R)-1-(2-Fluoro-5-methoxyphenyl)pyrrolidin-3-yl)methoxy)phenyl)-4-(trifluoromethyl)pyrrolidin-2-yl)acetic acid, HCl]: on human GPR40 [2], the EC50 was 0.63 µM.
Take `COc1cc(N2CCC(Oc3ccc(N4C[C@H](OC)C[C@@H]4CC(=O)O)cc3)CC2)c(F)cc1CC(C)C` [Example 30, 2-((2R,4R)-1-(4-((1-(2-Fluoro-4-isobutyl-5-methoxyphenyl)piperidin-4-yl)oxy)phenyl)-4-methoxypyrrolidin-2-yl)acetic acid, TFA]: the EC50 at human GPR40 [2] was found to be 0.84 µM.
On the same count and under the same terms, for `CCOc1ccc(F)c(N2CCC(Oc3ccc(N4C[C@@H](OCc5ccccc5)C[C@@H]4CC(=O)O)cc3)CC2)c1` [Example 46, 2-((2R,4S)-4-(Benzyloxy)-1-(4-((1-(5-ethoxy-2-fluorophenyl)piperidin-4-yl)oxy)phenyl)pyrrolidin-2-yl)acetic acid, HCl] the value was 0.65 µM; for `CCOc1ccc(F)c(N2CCC(Oc3ccc(N4C[C@H](Oc5cccnc5)C[C@@H]4CC(=O)O)cc3)CC2)c1` [Example 76, 2-((2R,4R)-1-(4-(1-(5-Ethoxy-2-fluorophenyl)piperidin-4-yloxy)phenyl)-4-(pyridin-3-yloxy)pyrrolidin-2-yl)acetic acid], 0.86 µM.
For the molecule `CCOc1ccc(F)c(N2CCC(Oc3ccc(N4C[C@H](N(C)S(=O)(=O)c5ccccc5)C[C@@H]4CC(=O)O)cc3)CC2)c1` [Example 80, 2-((2R,4R)-1-(4-(1-(5-Ethoxy-2-fluorophenyl)piperidin-4-yloxy)phenyl)-4-(N-methylphenylsulfonamido)pyrrolidin-2-yl)acetic acid, TFA], the EC50 on human GPR40 [2] stood at 4.6 µM.
As to `COc1cc(N2CCC(Oc3ccc(N4C[C@H](OC)C[C@@H]4CC(=O)O)cc3)C(Cn3cnnn3)C2)c(Cl)cn1` (stereo partly drawn) [Example 94, 2-((2R,4R)-1-(4-(((3,4-trans)-3-((1H-Tetrazol-1-yl)methyl)-1-(5-chloro-2-methoxypyridin-4-yl)piperidin-4-yl)oxy)phenyl)-4-methoxypyrrolidin-2-yl)acetic acid, TFA], the EC50 at human GPR40 [2] is 3.4 µM.
On to `COc1cc(N2CCC(Oc3cnc(N4C[C@H](OC)[C@@H](C)[C@@H]4CC(=O)O)c(F)c3)C(C)C2)c(Cl)cn1` (stereo partly drawn) [Example 171, 2-((2S,3S,4R)-1-(5-(((3,4-trans)-1-(5-Chloro-2-methoxypyridin-4-yl)-3-methylpiperidin-4-yl)oxy)-3-fluoropyridin-2-yl)-4-methoxy-3-methylpyrrolidin-2-yl)acetic acid], for which, on human GPR40 [2], the EC50 is 0.41 µM.
`COc1cc(N2CCC(Oc3ncc(N4C[C@H](OC)[C@@H](C)[C@@H]4CC(=O)O)cc3OC(C)C)C(C)C2)c(Cl)cn1` (stereo partly drawn) [Example 167, 2-((2S,3S,4R)-1-(6-(((3,4-trans)-1-(5-Chloro-2-methoxypyridin-4-yl)-3-methylpiperidin-4-yl)oxy)-5-isopropoxypyridin-3-yl)-4-methoxy-3-methylpyrrolidin-2-yl)acetic acid]: the EC50 on human GPR40 [2] was 0.045 µM.
On the same count and under the same terms, for `COc1ccc(F)c(N2CCC(N(C)c3ccc(N4C[C@H](OC)C[C@@H]4CC(=O)O)cn3)CC2)c1` [Example 37, 2-((2R,4R)-1-(6-((1-(2-Fluoro-5-methoxyphenyl)piperidin-4-yl)(methyl)amino)pyridin-3-yl)-4-methoxypyrrolidin-2-yl)acetic acid, HCl] the value was 3.2 µM; for `CCOc1ccc(F)c(N2CCC(Oc3ccc(N4C[C@H](C(F)(F)F)C[C@@H]4CC(=O)O)cc3)C(C)C2C)c1` (single isomer, unassigned) [Example 44, Isomer 2, HCl], 0.505 µM; for `COc1ccc(F)c(N2CCC(Oc3ccc(N4C[C@H](OC)C[C@@H]4CC(=O)O)cc3)CC2)c1Cc1ccccc1` [Example 32, 2-((2R,4R)-1-(4-((1-(2-Benzyl-6-fluoro-3-methoxyphenyl)piperidin-4-yl)oxy)phenyl)-4-methoxypyrrolidin-2-yl)acetic acid, TFA], 1.7 µM.
Still for that read-out and setting: with `COc1cc(N2CCC(Oc3ccc(N4C[C@H](C(F)(F)F)C[C@@H]4CC(=O)O)cc3F)C(C)C2)c(Cl)cn1` (stereo partly drawn) [Example 134, 2-((2R,4R)-1-(4-(((3,4-trans)-1-(5-Chloro-2-methoxypyridin-4-yl)-3-methylpiperidin-4-yl)oxy)-3-fluorophenyl)-4-(trifluoromethyl)pyrrolidin-2-yl)acetic acid] the figure was 0.58 µM.
